# Test system: a variety of test species
# Test: Pre-emergence herbicidal activity (glasshouse, sprayed one day after sowing, evaluated after 13 days)
# Assay type: in vivo
# Set-up: key: 5=total damage to plant; 0=no damage to plant
# Details: ABUTH, application pre-emergence, rate 1000 g/Ha, scale 0-5
# Method in brief: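 Damage was rated 13 days after treatment on a 0–5 scale (0 = no damage, 5 = total damage). Pots of seeds in standard soil were sprayed one day after sowing with an aqueous solution from an acetone/water (50:50), 0.5% Tween 20 formulation and kept at 24/16 °C day/night.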
row,Structure (SMILES),"Pre-emergence herbicidal damage score, ABUTH"
1,CC1=C(Cl)C(=O)N(c2noc(C(C)C)c2C#N)C1 [A103],5
2,CC1=C(Cl)C(=O)N(c2cc(C(C)(C)C#N)on2)C1 [A104],5
3,COC1=C(Br)C(=O)N(c2cc(C(C)(C)C)on2)C1O (stereo not shown) [B2],5
4,C=CCNC1=C(Cl)C(=O)N(c2cc(C(C)(C)C)on2)C1O (stereo not shown) [C7],5

# Same assay, conditions: ALOMY, application pre-emergence, rate 1000 g/Ha, scale 0-5
row,Structure (SMILES),"Pre-emergence herbicidal damage score, ALOMY"
1,CC1=C(Cl)C(=O)N(c2noc(C(C)C)c2C#N)C1 [A103],4
2,CC1=C(Cl)C(=O)N(c2cc(C(C)(C)C#N)on2)C1 [A104],4
3,COC1=C(Br)C(=O)N(c2cc(C(C)(C)C)on2)C1O (stereo not shown) [B2],4
4,C=CCNC1=C(Cl)C(=O)N(c2cc(C(C)(C)C)on2)C1O (stereo not shown) [C7],3

# Same assay, conditions: AMARE, application pre-emergence, rate 1000 g/Ha, scale 0-5
row,Structure (SMILES),"Pre-emergence herbicidal damage score, AMARE"
1,CC1=C(Cl)C(=O)N(c2noc(C(C)C)c2C#N)C1 [A103],5
2,CC1=C(Cl)C(=O)N(c2cc(C(C)(C)C#N)on2)C1 [A104],5
3,COC1=C(Br)C(=O)N(c2cc(C(C)(C)C)on2)C1O (stereo not shown) [B2],5
4,C=CCNC1=C(Cl)C(=O)N(c2cc(C(C)(C)C)on2)C1O (stereo not shown) [C7],5

# Same assay, conditions: ECHCG, application pre-emergence, rate 1000 g/Ha, scale 0-5
row,Structure (SMILES),"Pre-emergence herbicidal damage score, ECHCG"
1,CC1=C(Cl)C(=O)N(c2noc(C(C)C)c2C#N)C1 [A103],5
2,CC1=C(Cl)C(=O)N(c2cc(C(C)(C)C#N)on2)C1 [A104],5
3,COC1=C(Br)C(=O)N(c2cc(C(C)(C)C)on2)C1O (stereo not shown) [B2],5
4,C=CCNC1=C(Cl)C(=O)N(c2cc(C(C)(C)C)on2)C1O (stereo not shown) [C7],5

# Same assay, conditions: SETFA, application pre-emergence, rate 1000 g/Ha, scale 0-5
row,Structure (SMILES),"Pre-emergence herbicidal damage score, SETFA"
1,CC1=C(Cl)C(=O)N(c2noc(C(C)C)c2C#N)C1 [A103],5
2,CC1=C(Cl)C(=O)N(c2cc(C(C)(C)C#N)on2)C1 [A104],5
3,COC1=C(Br)C(=O)N(c2cc(C(C)(C)C)on2)C1O (stereo not shown) [B2],4
4,C=CCNC1=C(Cl)C(=O)N(c2cc(C(C)(C)C)on2)C1O (stereo not shown) [C7],3

# Same assay, conditions: ZEAMX, application pre-emergence, rate 1000 g/Ha, scale 0-5
row,Structure (SMILES),"Pre-emergence herbicidal damage score, ZEAMX"
1,CC1=C(Cl)C(=O)N(c2noc(C(C)C)c2C#N)C1 [A103],2
2,CC1=C(Cl)C(=O)N(c2cc(C(C)(C)C#N)on2)C1 [A104],2
3,COC1=C(Br)C(=O)N(c2cc(C(C)(C)C)on2)C1O (stereo not shown) [B2],1
4,C=CCNC1=C(Cl)C(=O)N(c2cc(C(C)(C)C)on2)C1O (stereo not shown) [C7],2

# Test system: a variety of test species
# Test: Post-emergence herbicidal activity (glasshouse, sprayed after 8 days cultivation, evaluated after 13 days)
# Assay type: in vivo
# Set-up: key: 5=total damage to plant; 0=no damage to plant
# Details: Abutilon theophrasti, rate 1000 g/Ha, scale 0-5
# Method in brief: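 Damage was rated 0-5 (5 = total) 13 days after a post-emergence spray of acetone/water (50:50) plus 0.5% Tween 20 formulation. Plants were sprayed at 8 days' growth and kept at 24/16° C, 14 h light, 65% humidity, watered twice daily.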
row,Structure (SMILES),"ABUTH (Abutilon theophrasti) damage score, application post-emergence"
1,CC1=C(Cl)C(=O)N(c2noc(C(C)C)c2C#N)C1 [A103],5
2,CC1=C(Cl)C(=O)N(c2cc(C(C)(C)C#N)on2)C1 [A104],5
3,COC1=C(Br)C(=O)N(c2cc(C(C)(C)C)on2)C1O (stereo not shown) [B2],5
4,C=CCNC1=C(Cl)C(=O)N(c2cc(C(C)(C)C)on2)C1O (stereo not shown) [C7],5

# Same assay, conditions: Alopecurus myosuroides, rate 1000 g/Ha, scale 0-5
row,Structure (SMILES),"ALOMY (Alopecurus myosuroides) damage score, application post-emergence"
1,CC1=C(Cl)C(=O)N(c2noc(C(C)C)c2C#N)C1 [A103],4
2,CC1=C(Cl)C(=O)N(c2cc(C(C)(C)C#N)on2)C1 [A104],5
3,COC1=C(Br)C(=O)N(c2cc(C(C)(C)C)on2)C1O (stereo not shown) [B2],4
4,C=CCNC1=C(Cl)C(=O)N(c2cc(C(C)(C)C)on2)C1O (stereo not shown) [C7],4

# Same assay, conditions: Amaranthus retroflexus, rate 1000 g/Ha, scale 0-5
row,Structure (SMILES),"AMARE (Amaranthus retroflexus) damage score, application post-emergence"
1,CC1=C(Cl)C(=O)N(c2noc(C(C)C)c2C#N)C1 [A103],5
2,CC1=C(Cl)C(=O)N(c2cc(C(C)(C)C#N)on2)C1 [A104],5
3,COC1=C(Br)C(=O)N(c2cc(C(C)(C)C)on2)C1O (stereo not shown) [B2],5
4,C=CCNC1=C(Cl)C(=O)N(c2cc(C(C)(C)C)on2)C1O (stereo not shown) [C7],5

# Same assay, conditions: Echinochloa crus-galli, rate 1000 g/Ha, scale 0-5
row,Structure (SMILES),"ECHCG (Echinochloa crus-galli) damage score, application post-emergence"
1,CC1=C(Cl)C(=O)N(c2noc(C(C)C)c2C#N)C1 [A103],5
2,CC1=C(Cl)C(=O)N(c2cc(C(C)(C)C#N)on2)C1 [A104],5
3,COC1=C(Br)C(=O)N(c2cc(C(C)(C)C)on2)C1O (stereo not shown) [B2],5
4,C=CCNC1=C(Cl)C(=O)N(c2cc(C(C)(C)C)on2)C1O (stereo not shown) [C7],5

# Same assay, conditions: Setaria faberi, rate 1000 g/Ha, scale 0-5
row,Structure (SMILES),"SETFA (Setaria faberi) damage score, application post-emergence"
1,CC1=C(Cl)C(=O)N(c2noc(C(C)C)c2C#N)C1 [A103],5
2,CC1=C(Cl)C(=O)N(c2cc(C(C)(C)C#N)on2)C1 [A104],5
3,COC1=C(Br)C(=O)N(c2cc(C(C)(C)C)on2)C1O (stereo not shown) [B2],4
4,C=CCNC1=C(Cl)C(=O)N(c2cc(C(C)(C)C)on2)C1O (stereo not shown) [C7],5

# Same assay, conditions: Zea mays, rate 1000 g/Ha, scale 0-5
row,Structure (SMILES),"ZEAMX (Zea mays) damage score, application post-emergence"
1,CC1=C(Cl)C(=O)N(c2noc(C(C)C)c2C#N)C1 [A103],3
2,CC1=C(Cl)C(=O)N(c2cc(C(C)(C)C#N)on2)C1 [A104],5
3,COC1=C(Br)C(=O)N(c2cc(C(C)(C)C)on2)C1O (stereo not shown) [B2],5
4,C=CCNC1=C(Cl)C(=O)N(c2cc(C(C)(C)C)on2)C1O (stereo not shown) [C7],3

# Test system: not given
# Test: not given
# Details: not given
row,Structure (SMILES),melting point [°C]
1,CC1=C(Cl)C(=O)N(c2noc(C(C)C)c2C#N)C1 [A103],112 to 114
2,CC1=C(Cl)C(=O)N(c2cc(C(C)(C)C#N)on2)C1 [A104],141 to 143
3,COC1=C(Br)C(=O)N(c2cc(C(C)(C)C)on2)C1O (stereo not shown) [B2],140 to 160
4,C=CCNC1=C(Cl)C(=O)N(c2cc(C(C)(C)C)on2)C1O (stereo not shown) [C7],163 to 164

# Source: patent publication US9936701B2, “Herbicidal compounds” (Syngenta Participations AG, priority 2013, dated 2018)
